# Test results as given in patent US10167262B2, “Herbicidal substituted 3-arylpyrazoles” (FMC CORPORATION, priority 2014, dated 2019).
# Key:
# Experiment in all cases: Test E pre-/postemergence greenhouse test, plant response rating 0-100
# Type in all cases: in vivo
# [1] = system: Brazilian crabgrass (Digitaria horizontalis); settings: Preemergence, scale 0 to 100
# How it was run: (§1)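 Visual control score, 0–100 relative to untreated plants, recorded 14–21 days after spraying. Treatments: preemergence on silt loam seedbeds and postemergence at the 1- to 4-leaf stage, with compound in surfactant-containing solvent.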
# [2] = system: arrowleaf sida (Sida rhombifolia); settings: scale 0 to 100; for Arrowleaf Sida plant response rating: Preemergence
# How it was run: as §1
# [3] = system: corn (Zea mays); settings: Preemergence, scale 0 to 100
# How it was run: as §1
# [4] = system: dayflower (Virginia (VA) dayflower, Commelina virginica); settings: Preemergence, scale 0 to 100
# How it was run: as §1
# [5] = system: fall panicum (Panicum dichotomiflorum); settings: Preemergence, scale 0 to 100
# How it was run: as §1
# [6] = system: field bindweed (Convolvulus arvensis); settings: Preemergence, scale 0 to 100
# How it was run: as §1
# [7] = system: hairy beggarticks (Bidens pilosa); settings: scale 0 to 100; for Beggarticks plant response rating: Preemergence
# How it was run: as §1
# [8] = system: palmer pigweed (Amaranthus palmeri); settings: scale 0 to 100; for Pigweed, Palmer plant response rating: Preemergence
# How it was run: as §1
# [9] = system: sandbur (southern sandbur, Cenchrus echinatus); settings: Preemergence, scale 0 to 100
# How it was run: as §1
# [10] = system: soybean (Glycine max); settings: Preemergence, scale 0 to 100
# How it was run: as §1
# [11] = system: waterhemp (common waterhemp, Amaranthus rudis); settings: scale 0 to 100; for Waterhemp plant response rating: Preemergence
# How it was run: as §1
# [12] = system: wild poinsettia (Euphorbia heterophylla); settings: Preemergence, scale 0 to 100
# How it was run: as §1
compound,measurement,setting,value
"CCn1cc(C(=O)c2ccccc2)c(-c2cc(Cl)cc(Cl)c2)n1 [Compound 31, [3-(3,5-dichlorophenyl)-1-ethyl-1H-pyrazol-4-yl]phenylmethanone]","Crabgrass, Brazil plant response rating",[1]; 62 g ai/ha,0
same,"Crabgrass, Brazil plant response rating",[1]; 125 g ai/ha,0
same,"Crabgrass, Brazil plant response rating",[1]; 250 g ai/ha,0
same,"Crabgrass, Brazil plant response rating",[1]; 500 g ai/ha,50
same,Arrowleaf Sida plant response rating,[2]; 62 g ai/ha,30
same,Arrowleaf Sida plant response rating,[2]; 125 g ai/ha,80
same,Arrowleaf Sida plant response rating,[2]; 250 g ai/ha,90
same,Arrowleaf Sida plant response rating,[2]; 500 g ai/ha,95
same,pest or weed control at 16 g/ha,"[2]; Sida rhombifolia, post-emergence, Postemergence, 16 g ai/ha",55%
same,pest or weed control at 31 g/ha,"[2]; Sida rhombifolia, post-emergence, Postemergence, 31 g ai/ha",65%
same,pest or weed control at 62 g/ha,"[2]; Sida rhombifolia, post-emergence, Postemergence, 62 g ai/ha",80%
same,pest or weed control at 125 g/ha,"[2]; Sida rhombifolia, post-emergence, Postemergence, 125 g ai/ha",90%
same,Corn plant response rating,[3]; 62 g ai/ha,0
same,Corn plant response rating,[3]; 125 g ai/ha,0
same,Corn plant response rating,[3]; 250 g ai/ha,0
same,Corn plant response rating,[3]; 500 g ai/ha,0
same,"Dayflower, VA plant response rating",[4]; 62 g ai/ha,0
same,"Dayflower, VA plant response rating",[4]; 125 g ai/ha,0
same,"Dayflower, VA plant response rating",[4]; 250 g ai/ha,0
same,"Dayflower, VA plant response rating",[4]; 500 g ai/ha,0
same,"Panicum, Fall plant response rating",[5]; 62 g ai/ha,0
same,"Panicum, Fall plant response rating",[5]; 125 g ai/ha,0
same,Field Bindweed plant response rating,[6]; 62 g ai/ha,0
same,Field Bindweed plant response rating,[6]; 125 g ai/ha,0
same,Field Bindweed plant response rating,[6]; 250 g ai/ha,0
same,Field Bindweed plant response rating,[6]; 500 g ai/ha,0
same,pest or weed control at 16 g/ha,"[7]; Bidens pilosa, post-emergence, Postemergence, 16 g ai/ha",70%
same,pest or weed control at 31 g/ha,"[7]; Bidens pilosa, post-emergence, Postemergence, 31 g ai/ha",80%
same,pest or weed control at 62 g/ha,"[7]; Bidens pilosa, post-emergence, Postemergence, 62 g ai/ha",85%
same,pest or weed control at 125 g/ha,"[7]; Bidens pilosa, post-emergence, Postemergence, 125 g ai/ha",85%
same,Beggarticks plant response rating,[7]; 62 g ai/ha,0
same,Beggarticks plant response rating,[7]; 125 g ai/ha,0
same,Beggarticks plant response rating,[7]; 250 g ai/ha,0
same,Beggarticks plant response rating,[7]; 500 g ai/ha,50
same,pest or weed control at 62 g/ha,"[8]; Amaranthus palmeri, post-emergence, Postemergence, 62 g ai/ha",60%
same,pest or weed control at 125 g/ha,"[8]; Amaranthus palmeri, post-emergence, Postemergence, 125 g ai/ha",75%
same,"Pigweed, Palmer plant response rating",[8]; 62 g ai/ha,0
same,"Pigweed, Palmer plant response rating",[8]; 125 g ai/ha,70
same,"Pigweed, Palmer plant response rating",[8]; 250 g ai/ha,98
same,"Pigweed, Palmer plant response rating",[8]; 500 g ai/ha,100
same,Sandbur plant response rating,[9]; 62 g ai/ha,0
same,Sandbur plant response rating,[9]; 125 g ai/ha,0
same,Sandbur plant response rating,[9]; 250 g ai/ha,0
same,Sandbur plant response rating,[9]; 500 g ai/ha,0
same,Soybean plant response rating,[10]; 62 g ai/ha,0
same,Soybean plant response rating,[10]; 125 g ai/ha,0
same,Soybean plant response rating,[10]; 250 g ai/ha,0
same,Soybean plant response rating,[10]; 500 g ai/ha,0
same,pest or weed control at 31 g/ha,"[11]; Amaranthus tuberculatus, post-emergence, Postemergence, 31 g ai/ha",50%
same,pest or weed control at 125 g/ha,"[11]; Amaranthus tuberculatus, post-emergence, Postemergence, 125 g ai/ha",60%
same,Waterhemp plant response rating,[11]; 62 g ai/ha,80
same,Waterhemp plant response rating,[11]; 125 g ai/ha,90
same,Waterhemp plant response rating,[11]; 250 g ai/ha,100
same,Waterhemp plant response rating,[11]; 500 g ai/ha,100
same,"Poinsettia, Wild plant response rating",[12]; 62 g ai/ha,0
same,"Poinsettia, Wild plant response rating",[12]; 125 g ai/ha,0
same,"Poinsettia, Wild plant response rating",[12]; 250 g ai/ha,0
same,"Poinsettia, Wild plant response rating",[12]; 500 g ai/ha,0
